# Reference: patent publication US20050153872A1, “Methods and compositions for the treatment of infection” (priority 2004, published 2005)
# Where two headings read alike, the source gives them in different places.
# B1: Rev. Ph-CA: Candida albicans alpha mating pheromone at N-terminus (S1) of colicin Ia (protein)
# chain: GFRLTNFGYFEPGMSDPVARGITNPGAESLGYDSDGHEIMAVASPIYVASNPPRVASPVFHGTPPAWSSFGNKTIWGGNEWVASPDSPTRSDIEKRDKEITAYKNTLSAQQKENENKRTEAGKRLSAAIAAREKDENTLKTLRAGNADAADITRQEFRLLQAELREYGFRTEIAGYDALRLHTESRMLFADADSLRISPREARSLIEQAEKRQKDAQNADKKAADMLAEYERRKGILDTRLSELEKNGGAALAVLDAQQARLLGQQTRNDRAISEARNKLSSVTESLNTARNALTRAEQQLTQQKNTPDGKTIVSPEKFPGRSSTNHSIVVSGDPRFAGTIKITTSAVIDNRANLNYLLSHSGLDYKRNILNDRNPVVTEDVEGDKKIYNAEVALAEWDKLRQRLLDARNKITSAESAVASNSARNNLSARTNEQKHANDALNALLKEKENIRNQLSGINQKIAEEKRKQDELKATKDAINFTTEFLKSVSEKYGAKAEQLAREMAGQAKGKKIRNVEEALKTYEKYRADINKKINAKDRAAIAAALESVKLSDISSNLNRFSRGLGYAGKFTSLADWITEFGKAVARGTENWRPLFVKTETIIAGNAATALVALALVFSILTGSALGIIGYGLLMAVTGALIDESLVEKANKFWGI
# modifications: Candida albicans alpha mating pheromone attached to colicin
# Legend:
# [1] = test system: Escherichia coli 02-1-65; experiment: In vivo protection of infected mice; set-up: species or system Kungming mice; details: i.p. infection 3.3 × 10^5 cfu/ml
# Description: (§1) The following experiments were performed by Pharmacology Lab, National Sichuan antibiotic industril institute, Chengdu, Sichuan.
# (§2) The agents described above were diluted with sterilized water to final concentrations of 10 mg/L, 5 mg/Land 2.5 mg/L. […]
# (§3) 170 mice (Kungming mice: 18˜22 g, 85 males and 85 females) were randomly divided into four groups and injected with a fatal dosage of staphylococci, enterococcus and E. coli intraperitoneally. […] Mice were inspected every 24 hours for 7-14 days. Dead mice were counted as positive results. The results are depicted in Table 3 and FIGS. 4 and 5A-B.
# [2] = test system: Staphylococcus aureus ATCC 29213; experiment: In vivo protection of infected mice; set-up: species or system Kungming mice; details: i.p. infection 3.6 × 10^5 cfu/ml
# Description: as §1, §2, §3
# [3] = test system: Candida albicans ATCC 10231; experiment: In vitro cell growth inhibition assay (OD595, filaments)
# [4] = test system: Enterococcus faecalis ATCC 700802; experiment: microbe, parasite or virus in culture; format: cell-based; details: Enterococcus faecalis, ATCC700802
# [5] = test system: Staphylococcus aureus ATCC 29213; experiment: MIC against challenge strain (Table 3); format: cell-based
# [6] = test system: Staphylococcus aureus MRSA BAA-42; experiment: microbe, parasite or virus in culture; format: cell-based
# [7] = test system: Escherichia coli 02-1-65; experiment: MIC against challenge strain (Table 3); format: cell-based; details: 02165, read-out: MIC
# [8] = test system: Enterococcus (20); experiment: In vitro antibacterial activity (MIC), clinical isolates; format: cell-based; details: 20 Enterococcus clinical isolates
# Description: (§4) The following experiments were performed by Lab. of Pharmacology, National Sichuan antibiotic industril institute, Chengdu, Sichuan.
# (§5) The following agents were used to test the in vitro activity of Ph-SA:
# (§6) All the bacterial strains used in the experiments were clinical isolates collected from Sichuan and Beijing in 2002 and identified by West China Hospital, Sichuan University and Chongqing University of Medical Sciences with API system. The following strains were used in the experiments detailed below: Staphylococcus aureus 168 strains (MRSA 80 strains and MSSA 88 strains) Staphylococcus epidermidis 46 strains (MRSE 25 strains and MSSE 21 strains), Enterococcus 20 strains, and Acenetobactor 20 strains. Staphylococcus aureus ATCC25923, 29213 and BAA-42 were used as control strains. Bacterial strains were contacted with one of the above described compounds and MIC50, MIC90 and MICScope were determined.
# [9] = test system: Staphylococcus epidermidis MSSE strain (21); experiment: as above; format: cell-based; details: Staphylococcus epidermidis, 21 MSSE clinical isolates
# Description: as §4, §5, §6
# [10] = test system: Staphylococcus epidermidis MRSE strain (25); experiment: as above; format: cell-based
# Description: as §4, §5, §6
# [11] = test system: Acenetobactor (20); experiment: as above; format: cell-based
# Description: as §4, §5, §6
# [12] = test system: Staphylococcus aureus MRSA strain (80); experiment: as above; format: cell-based
# Description: as §4, §5, §6
# [13] = test system: Staphylococcus aureus MSSA strain (88); experiment: as above; format: cell-based; details: Staphylococcus aureus, MSSA
# Description: as §4, §5, §6
# [14] = test system: Staphylococcus aureus MRSA 02-18; experiment: microbe, parasite or virus in culture; format: cell-based; details: Staphylococcus aureus, MRSA
# [15] = test system: Staphylococcus aureus MRSA BAA-42; experiment: In vivo protection of infected mice; set-up: species or system Kungming mice
# Description: as §1
# (§7) The agents described above were diluted with sterilized water to final concentrations of 10 mg/L, 5 mg/Land 2.5 mg/L.
# (§8) Staphylococcus aureus ATCC BAA-42(MRSA) and enterococcus faecalis ATCC 700802 were used as control strains.
# as §3
# [16] = test system: Staphylococcus aureus MRSA 02-18; experiment: In vivo protection of infected mice; set-up: species or system Kungming mice
# Description: as §1, §7, §8, §3
# [17] = test system: Enterococcus faecalis ATCC 700802; experiment: In vivo protection of infected mice; set-up: species or system Kungming mice
# Description: as §1, §7, §8, §3
# [18] = Staphylococcus epidermidis, MRSE
# [19] = 1st Time, i.v. treatment after one hour
# [20] = 2nd Time (value in parentheses), i.v. treatment
molecule,measurement,setting,value
"CC1(C)S[C@@H]2[C@H](NC(=O)[C@H](N)c3ccccc3)C(=O)N2[C@H]1C(=O)O [Ampicillin, sodium ampicillin]",ED50,"[1]; Escherichia coli, 02165, 2nd Time (value in parentheses), i.v. treatment, read-out: ED50",> 30.8 mg/kg
same,ED50,"[1]; Escherichia coli, 02165, 1 h, 1st Time, i.v. treatment after one hour, read-out: ED50",> 30.8 mg/kg
same,ED50,"[2]; Staphylococcus aureus, ATCC29213, 2nd Time (value in parentheses), i.v. treatment, read-out: ED50",12.3 mg/kg
same,ED50,"[2]; Staphylococcus aureus, ATCC29213, 1 h, 1st Time, i.v. treatment after one hour, read-out: ED50",14.2 mg/kg
same,effect on growth of Candida albicans,"[3]; Ph-CA 5 μg/ml, Ph-SA 5 μg/ml, ampicillin 50 μg/ml, amphotericin B 200 ng/ml, fluconazole 3 μg/ml",no effect on the growth
same,MIC,[4],0.125 µg/mL
same,MIC,"[5]; ATCC29213, read-out: MIC",< 0.015 µg/mL
same,MIC,[6]; Staphylococcus aureus,0.25 µg/mL
same,MIC,[7],> 128 µg/mL
same,MIC,[8],0.25 to 16 µg/mL
same,MIC50,[8]; read-out: MIC50,0.5 µg/mL
same,MIC90,[8]; read-out: MIC90,16 µg/mL
same,MIC,[9],0.015 to 0.25 µg/mL
same,MIC50,[9]; read-out: MIC50,0.03 µg/mL
same,MIC90,[9]; read-out: MIC90,0.25 µg/mL
same,MIC Scope,[10]; 25 MRSE clinical isolates,0.06˜64 mg/l
same,MIC50,[10]; [18],16 µg/mL
same,MIC90,[10]; [18],64 µg/mL
same,MIC50,[11],> 128 µg/mL
same,MIC90,[11],> 128 µg/mL
same,MIC Scope,[12]; 80 MRSA clinical isolates,0.06˜64 mg/l
same,MIC50,"[12]; Staphylococcus aureus, MRSA",16 µg/mL
same,MIC90,"[12]; Staphylococcus aureus, MRSA",32 µg/mL
same,MIC50,[13],0.25 µg/mL
same,MIC90,[13],1 µg/mL
same,MIC,[13]; read-out: MIC Scope,0.015 to 0.25 µg/mL
same,MIC,[14],8 µg/mL
same,ED50,[15]; Staphylococcus aureus,23.4 mg/kg
same,ED50,"[15]; Staphylococcus aureus, 1 h",25.2 mg/kg
same,ED50,"[16]; Staphylococcus aureus, MRSA",> 20 mg/kg
same,ED50,"[16]; Staphylococcus aureus, MRSA, 1 h",32.7 mg/kg
same,ED50,"[17]; Enterococcus faecalis, ATCC700802",3 mg/kg
same,ED50,"[17]; Enterococcus faecalis, ATCC700802, 1 h",3.37 mg/kg
"Cc1nnc(SCC2=C(C(=O)[O-])N3C(=O)[C@@H](NC(=O)Cn4cnnn4)[C@H]3SC2)s1.[Na+] [Cephazoid, sodium Cephazoid]",ED50,[1]; [19],>30.77 mg/kg
same,ED50,[1]; [20],(>30.77) mg/kg
same,ED50,[2]; [19],29.03 mg/kg
same,ED50,[2]; [20],(11.20) mg/kg
same,MIC,[5],0.03 µg/mL
same,MIC,[6]; Staphylococcus aureus MRSA BAA-42,0.5 µg/mL
same,ED50,"[15]; 1st Time, mice, i.p. infection 5.5 × 10^5 cfu/ml, i.v. treatment after one hour",9.04 mg/kg
same,ED50,"[15]; 2nd Time (value in parentheses), mice, i.p. infection 5.5 × 10^5 cfu/ml, i.v. treatment",(8.78) mg/kg
same,ED50,"[16]; 1st Time, mice, i.p. infection 1.7 × 10^5 cfu/ml, i.v. treatment after one hour",11.82 mg/kg
same,ED50,"[16]; 2nd Time (value in parentheses), mice, i.p. infection 1.7 × 10^5 cfu/ml, i.v. treatment",(>10) mg/kg
same,ED50,"[17]; 1st Time, mice, i.p. infection 8.0 × 10^6 cfu/ml, i.v. treatment after one hour",>10 mg/kg
same,ED50,"[17]; 2nd Time (value in parentheses), mice, i.p. infection 8.0 × 10^6 cfu/ml, i.v. treatment",(12.91) mg/kg
B1,inhibition effect as compared to PMC-CA,[3]; 20 μg/ml,about 30%
same,antifungal effect against Candida albicans in vitro and in vivo,[3]; general statement,no effect
